{
  "source": "paper PMC11122421",
  "about": "(Marine Drugs, 2024)",
  "key": {"rat α7 nAChRs": {"target": "T1, rat α7 nAChRs (Rattus norvegicus, UniProt Q05941)", "T1 construct": "expressed in transfected cells; host or cells: Xenopus laevis oocytes injected with cRNA; plasmids from J. Michael McIntosh (University of Utah)", "T1 sequence (Q05941 23-502)": "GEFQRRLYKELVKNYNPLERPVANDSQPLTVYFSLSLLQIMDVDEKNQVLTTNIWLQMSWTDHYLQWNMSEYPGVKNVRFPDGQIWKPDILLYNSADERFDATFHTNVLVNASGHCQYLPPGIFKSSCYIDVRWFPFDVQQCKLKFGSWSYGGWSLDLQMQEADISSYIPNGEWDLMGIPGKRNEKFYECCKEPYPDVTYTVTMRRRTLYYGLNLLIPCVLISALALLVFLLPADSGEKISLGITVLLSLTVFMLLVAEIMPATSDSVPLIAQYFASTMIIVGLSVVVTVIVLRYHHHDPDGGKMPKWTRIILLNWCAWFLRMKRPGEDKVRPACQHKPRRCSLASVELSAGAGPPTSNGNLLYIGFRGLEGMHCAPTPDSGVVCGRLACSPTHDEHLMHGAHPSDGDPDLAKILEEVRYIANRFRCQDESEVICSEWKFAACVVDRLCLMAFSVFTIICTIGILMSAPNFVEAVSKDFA", "experiment": "cell-based", "format": "cell-based"}, "rat α3β2 nAChR": {"target": "T2, rat α3β2 nAChR (Rattus norvegicus, UniProt P04757+P12390)", "T2 construct": "expressed in transfected cells; host or cells: Xenopus laevis oocytes injected with cRNA; plasmids from J. Michael McIntosh (University of Utah)", "T2 sequence (P04757 26-499 limits assumed)": "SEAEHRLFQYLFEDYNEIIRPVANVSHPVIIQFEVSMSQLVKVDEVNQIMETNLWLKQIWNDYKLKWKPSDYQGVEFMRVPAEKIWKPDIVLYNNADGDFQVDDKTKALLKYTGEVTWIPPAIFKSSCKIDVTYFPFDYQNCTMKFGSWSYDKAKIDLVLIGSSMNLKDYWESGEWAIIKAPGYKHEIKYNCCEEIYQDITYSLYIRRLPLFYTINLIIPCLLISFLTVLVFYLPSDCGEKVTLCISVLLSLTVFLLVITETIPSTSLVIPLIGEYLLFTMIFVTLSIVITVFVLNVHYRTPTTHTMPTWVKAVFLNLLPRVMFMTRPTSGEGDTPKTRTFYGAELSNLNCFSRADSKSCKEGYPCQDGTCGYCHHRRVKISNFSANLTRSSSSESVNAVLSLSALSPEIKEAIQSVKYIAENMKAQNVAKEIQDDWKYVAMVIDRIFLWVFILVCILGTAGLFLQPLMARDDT", "T2 sequence (P12390 25-500 limits assumed)": "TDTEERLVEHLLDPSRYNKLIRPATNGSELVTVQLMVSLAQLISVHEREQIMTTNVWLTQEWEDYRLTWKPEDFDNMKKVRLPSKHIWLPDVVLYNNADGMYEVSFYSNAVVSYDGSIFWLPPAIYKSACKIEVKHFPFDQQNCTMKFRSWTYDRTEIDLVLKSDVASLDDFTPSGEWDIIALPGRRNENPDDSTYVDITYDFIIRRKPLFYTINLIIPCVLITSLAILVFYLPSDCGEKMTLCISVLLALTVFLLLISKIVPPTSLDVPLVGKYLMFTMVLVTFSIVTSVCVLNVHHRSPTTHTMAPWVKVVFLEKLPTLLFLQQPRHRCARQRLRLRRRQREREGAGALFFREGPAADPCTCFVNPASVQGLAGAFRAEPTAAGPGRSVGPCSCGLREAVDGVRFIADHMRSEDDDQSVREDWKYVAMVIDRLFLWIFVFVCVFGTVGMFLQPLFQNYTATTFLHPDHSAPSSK", "experiment": "cell-based"}, "rat α6/α3β4 nAChRs": {"target": "T3, rat α6/α3β4 nAChRs (Rattus norvegicus, UniProt P04757+P12392+P43143)", "T3 construct": "expressed in transfected cells; host or cells: Xenopus laevis oocytes injected with cRNA; plasmids from J. Michael McIntosh (University of Utah)", "T3 sequence (P43143+P04757 fused with the stated changes)": "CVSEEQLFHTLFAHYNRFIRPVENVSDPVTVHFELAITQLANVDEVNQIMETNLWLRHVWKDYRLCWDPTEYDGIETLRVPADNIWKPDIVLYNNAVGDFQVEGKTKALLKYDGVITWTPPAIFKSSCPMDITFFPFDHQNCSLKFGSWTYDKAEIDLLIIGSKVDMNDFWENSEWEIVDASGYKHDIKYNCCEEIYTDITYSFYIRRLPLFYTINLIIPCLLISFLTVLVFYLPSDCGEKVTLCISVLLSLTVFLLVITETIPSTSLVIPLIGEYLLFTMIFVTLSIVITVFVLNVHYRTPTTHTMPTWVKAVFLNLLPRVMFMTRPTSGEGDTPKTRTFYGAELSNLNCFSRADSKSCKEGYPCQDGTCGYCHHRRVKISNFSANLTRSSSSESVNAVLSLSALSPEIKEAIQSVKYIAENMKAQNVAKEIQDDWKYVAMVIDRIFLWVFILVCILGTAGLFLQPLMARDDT", "T3 sequence (P12392 21-495)": "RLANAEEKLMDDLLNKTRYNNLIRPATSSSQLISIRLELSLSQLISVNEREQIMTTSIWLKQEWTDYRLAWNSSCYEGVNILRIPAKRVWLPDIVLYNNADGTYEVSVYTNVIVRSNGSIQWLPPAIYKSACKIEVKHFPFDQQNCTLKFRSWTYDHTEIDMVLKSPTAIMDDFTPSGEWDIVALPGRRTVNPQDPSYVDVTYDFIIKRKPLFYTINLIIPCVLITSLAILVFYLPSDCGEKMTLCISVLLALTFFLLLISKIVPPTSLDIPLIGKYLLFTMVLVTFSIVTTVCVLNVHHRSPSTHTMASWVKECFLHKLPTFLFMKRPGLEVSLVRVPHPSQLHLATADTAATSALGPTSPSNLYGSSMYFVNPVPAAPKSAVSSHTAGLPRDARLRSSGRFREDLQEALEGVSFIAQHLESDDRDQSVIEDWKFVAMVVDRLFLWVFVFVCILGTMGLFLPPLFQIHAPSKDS", "format": "cell-based"}},
  "note": "Where a SMILES comes first, the peptide text is derived from it. Bridges are numbered along the chain shown (N, C = ends).",
  "data": [
    {"molecule": "C[C@@H]1NC(=O)[C@@H]2CSSC[C@H](NC(=O)CN)C(=O)N[C@@H](CSSC[C@@H](C(N)=O)NC(=O)[C@H](Cc3c[nH]cn3)NC(=O)[C@H](CCC(=O)O)NC(=O)[C@H](Cc3c[nH]cn3)NC1=O)C(=O)N[C@@H](CO)C(=O)N[C@@H](CC(N)=O)C(=O)N1CCC[C@H]1C(=O)N1CCC[C@H]1C(=O)N2", "note": "[[Q1G, ΔR14]LvIB] (H-GCCSNPPCAHEHC-NH2; disulfide 2-8, 3-13)", "values": [
      {"measurement": "Hill Slope", "setting": "rat α7 nAChRs", "result": "0.99 (0.8–1.19)"},
      {"measurement": "inhibition rate of ACh-evoked current", "setting": "rat α7 nAChRs", "result": "98 ± 0.12", "unit": "%"},
      {"measurement": "time to ~90% current restoration after block (recovery/washout)", "setting": "rat α7 nAChRs", "result": "≤ 17", "unit": "min"},
      {"measurement": "inhibition rate", "setting": "rat α3β2 nAChR", "result": "97 ± 2", "unit": "%"},
      {"measurement": "inhibition rate", "setting": "rat α6/α3β4 nAChRs", "result": "88 ± 5", "unit": "%"}
    ]}
  ]
}
